In publication PMC11253866 (RSC Medicinal Chemistry, 2024):
Read-outs that look alike come from different tables or passages of the source. Marks after values point to notes of the source that are not given here.

Experiments:
[1] = Liver microsome stability assessment; assay type: in vitro ADME, rat; conditions: LCMS analysis of liver microsome assay mixtures
[2] = scale 0–6, cited from earlier work

| Structure (SMILES) | major metabolic route [1] | CNS MPO score [2] | CNS MPO score ([2]; listed as gabapentin) |
| --- | --- | --- | --- |
| CNCCCOc1ccc(S(=O)(=O)N2c3ccccc3Oc3ccccc32)cc1.O=C(O)C(F)(F)F [Compound 4a, 3-(4-((10H-Phenoxazin-10-yl)sulfonyl)phenoxy)-N-methylpropan-1-amine.TFA] | demethylation |  |  |
| CN(C)CCCOc1ccc(S(=O)(=O)N2c3ccccc3Oc3ccccc32)cc1.O=C(O)C(F)(F)F [Compound 4b, 3-(4-((10H-Phenoxazin-10-yl)sulfonyl)phenoxy)-N,N-dimethylpropan-1-amine.TFA] | demethylation |  |  |
| NCC1(CC(=O)O)CCCCC1 [Gabapentin] |  | 4.2 ^a | 4.2 |
| CN(C)CCCN1c2ccccc2CCc2ccc(Cl)cc21 [clomipramine] |  | 3.1 |  |
| CNCCC=C1c2ccccc2CCc2ccccc21 [nortriptyline] |  | 3.3 |  |
| COc1cccc(C2(O)CCCCC2CN(C)C)c1 (stereo not shown) [tramadol] |  | 4.6 |  |
